{"source": "patent US20240065303A1", "about": "“BITTER MASKING AGENT” (SOLUGEN, INC., priority 2020, published 2024)", "format_in_all_cases": "in vivo", "key": {"[1]": {"assay": "blind taste panel: which coffee tasted less bitter", "settings": "Coffee 2 = 0.5 grams of sodium gluconate added to a 200 g coffee; blind study, panel of 8 individuals; FIG. 1", "method": "The ability of a BMA to reduce the bitterness of a coffee product was investigated. Specifically, varying amounts of a BMA according to aspects described herein was added to coffee samples. In a blind study, a panel of 8 individuals were asked to determine which coffee tasted less bitter. […] Coffee 2 had 0.5 grams of sodium gluconate added to a 200 g coffee.\nIn a blind study, a panel of 8 individuals were asked to determine which coffee tasted less bitter. […] Coffee 2 had 0.5 grams of sodium gluconate added to a 200 g coffee."}, "[2]": {"assay": "trained-panel taste test of caffeine solutions with and without sodium gluconate (dose response)", "method": "The effect of sodium gluconate on bitterness as a dose response was investigated, In a blind study, six (6) trained panelists conducted a taste test with caffeine samples. […] Caffeine solutions with and without sodium gluconate were prepared on a w/v basis with deionized water. Products were dispensed into lidded soufflé cups with 3-digit codes and evaluated at 21° C. Products were evaluated in duplicate by 6 trained panelists for bitter taste amelioration following the study by Leksrisompong et al. (2012)."}, "[3]": {"assay": "blind tasting of chocolate chip cookies baked with sugar substitutes, with and without sodium gluconate", "settings": "½ tsp of sodium gluconate for every cup of erythritol; 5 people, blind sampled", "description": "The level of sodium gluconate on bitterness reduction in baked goods was investigated. Using a commercially available recipe of chocolate chip cookies, a batch of cookies were baked and blind sampled. The batches were baked using the recipe (i) 2 sticks unsalted butter, at room temperature; (ii) 1 cup erythritol or 1 cup monk fruit sugar substitute or ½ cup stevia sugar substitute; (iii) for samples with sodium gluconate, ½ tsp of sodium gluconate was used for every cup of erythritol; (iv) 1¼ egg; (v) 1⅓ cup almond flour; (vi) 2 tsp vanilla extract; (vii) 1¼ tsp sea salt; (viii) ½ tsp baking powder; (ix) ¼ tsp baking soda; and (x) 1 bag Lily's Sweets Semi-Sweet Chocolate Chips or Milk Chocolate Baking Chips. […] Five (5) people were brought in to compare batches with and without sodium gluconate."}}, "data": [{"smiles": "O=C([O-])[C@H](O)[C@@H](O)[C@H](O)[C@H](O)CO.[Na+]", "note": "[sodium gluconate]", "values": [{"measurement": "coffee sample chosen by the panel as less bitter", "setting": "[1]", "result": "less bitter, smoother taste"}, {"measurement": "bitterness reduction of caffeine samples", "setting": "[2]; caffeine solutions w/v in deionized water, 21° C., 6 trained panelists in duplicate, 0 to 15 point Spectrum intensity scale, FIG. 2", "result": "significant bitterness reduction"}, {"measurement": "nature of bitterness reduction as a function of masking agent dose", "setting": "[2]; percent bitterness vs masking agent dose, FIG. 3", "result": "linear"}, {"measurement": "participants' preference between cookie batches with and without sodium gluconate", "setting": "[3]", "result": "All 5 participants preferred"}]}]}
